According to ChEMBL document CHEMBL1128348, “Potent non-peptide fibrinogen receptor antagonists which present an alternative pharmacophore” (J Med Chem, 1995):

Experiments:
[1] = molecular target: Integrin alpha-IIb/beta-3 (Homo sapiens, UniProt P05106+P08514); experiment: Inhibition of [3H]-SKF- 107260 binding to purified alphaIIb-beta3 integrin of human platelets
Homo sapiens = species on record: Homo sapiens; experiment: Antiaggregatory activity against human platelet-rich plasma induced by ADP; assay type: functional, organism-based

Integrin alpha-IIb/beta-3, sequence (P05106 27-788 limits assumed): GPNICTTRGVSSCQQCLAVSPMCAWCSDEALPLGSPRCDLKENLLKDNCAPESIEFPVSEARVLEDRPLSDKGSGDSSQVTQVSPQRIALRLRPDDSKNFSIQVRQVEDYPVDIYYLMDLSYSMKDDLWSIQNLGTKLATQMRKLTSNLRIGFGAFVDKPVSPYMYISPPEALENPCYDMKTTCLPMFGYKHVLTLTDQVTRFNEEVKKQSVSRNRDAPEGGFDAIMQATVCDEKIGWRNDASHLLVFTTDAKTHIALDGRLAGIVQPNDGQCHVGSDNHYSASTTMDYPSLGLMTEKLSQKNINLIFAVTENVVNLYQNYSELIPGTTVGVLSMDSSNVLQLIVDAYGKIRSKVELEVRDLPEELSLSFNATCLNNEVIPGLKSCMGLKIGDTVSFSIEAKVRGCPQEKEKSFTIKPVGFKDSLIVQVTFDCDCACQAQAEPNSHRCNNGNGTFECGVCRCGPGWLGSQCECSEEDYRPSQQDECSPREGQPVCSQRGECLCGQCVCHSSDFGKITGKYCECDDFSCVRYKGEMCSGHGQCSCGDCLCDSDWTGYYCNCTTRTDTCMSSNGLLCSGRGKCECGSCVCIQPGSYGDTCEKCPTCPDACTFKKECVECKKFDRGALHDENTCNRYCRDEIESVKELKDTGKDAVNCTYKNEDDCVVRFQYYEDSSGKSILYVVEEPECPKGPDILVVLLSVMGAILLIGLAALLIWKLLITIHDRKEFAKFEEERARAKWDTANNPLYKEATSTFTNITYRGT
Integrin alpha-IIb/beta-3, sequence (P08514 32-887 limits assumed): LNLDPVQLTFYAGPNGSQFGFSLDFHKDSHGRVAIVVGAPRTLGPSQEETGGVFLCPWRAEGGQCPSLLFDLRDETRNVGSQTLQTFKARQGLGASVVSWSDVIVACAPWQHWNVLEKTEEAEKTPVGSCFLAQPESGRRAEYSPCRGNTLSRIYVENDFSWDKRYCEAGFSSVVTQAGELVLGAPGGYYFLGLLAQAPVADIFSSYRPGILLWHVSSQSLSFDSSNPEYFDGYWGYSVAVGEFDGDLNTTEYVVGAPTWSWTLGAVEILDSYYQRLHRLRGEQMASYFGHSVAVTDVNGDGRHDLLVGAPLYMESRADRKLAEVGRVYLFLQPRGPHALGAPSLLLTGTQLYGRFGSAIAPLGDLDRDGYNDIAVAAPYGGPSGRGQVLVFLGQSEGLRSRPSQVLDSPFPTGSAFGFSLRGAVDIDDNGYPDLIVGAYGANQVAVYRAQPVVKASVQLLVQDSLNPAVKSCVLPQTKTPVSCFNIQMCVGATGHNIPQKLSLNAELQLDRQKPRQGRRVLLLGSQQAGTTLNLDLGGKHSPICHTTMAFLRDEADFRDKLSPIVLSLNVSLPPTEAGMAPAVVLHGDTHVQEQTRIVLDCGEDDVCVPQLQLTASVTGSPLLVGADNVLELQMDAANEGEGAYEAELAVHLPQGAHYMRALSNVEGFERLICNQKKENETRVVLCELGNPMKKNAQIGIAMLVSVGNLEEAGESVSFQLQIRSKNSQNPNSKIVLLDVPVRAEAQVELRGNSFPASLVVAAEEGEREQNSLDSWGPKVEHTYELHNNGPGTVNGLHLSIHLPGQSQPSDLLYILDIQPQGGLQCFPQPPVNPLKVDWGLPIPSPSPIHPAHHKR
Integrin alpha-IIb/beta-3, sequence (P08514 891-1039 limits assumed): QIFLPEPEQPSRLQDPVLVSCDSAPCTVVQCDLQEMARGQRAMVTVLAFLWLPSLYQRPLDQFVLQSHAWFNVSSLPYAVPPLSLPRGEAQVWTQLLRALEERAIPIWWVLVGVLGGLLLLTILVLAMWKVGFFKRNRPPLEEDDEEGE

Ki [1] [nM]	IC50 (Homo sapiens) [nM]	Structure (SMILES)
2.3	150	N=C(N)c1ccc(NC(=O)c2ccc3c(c2)NC(CC(=O)O)C(=O)N(CCc2ccccc2)C3)cc1 (configuration not stated)
1900	5260	N=C(N)NCCC[C@@H]1NC(=O)[C@@H]2CCCN2C(=O)[C@H]2CCCN2C(=O)CNC(=O)[C@H](CC(=O)O)NC(=O)CNC1=O
26	380	N=C(N)c1ccc(NC(=O)c2ccc3c(c2)CN(CCc2ccccc2)C(=O)C(CC(=O)O)N3)cc1 (configuration not stated)
–	90	CN1C(=O)c2ccccc2SSc2ccccc2NC(=O)[C@H](CC(=O)O)NC(=O)CNC(=O)[C@@H]1CCCN=C(N)N [SKF-107260]
